Laboratory results as given in US20020098210A1, “FORMULATIONS AND METHODS FOR REDUCING SKIN IRRITATION” (priority 1997, published 2002).
Where two headings read alike, the source gives them in different places.

Tests used:
[1] = tested on: lactic acid skin irritation; experiment: Lactic acid irritation trial, time zero test (anti-irritant applied simultaneously with irritant); format: in vivo, human; conditions: time zero tests; for Percent Inhibition (average inhibition of cumulative irritation): cation salt 250 mM, lactic acid irritant, average over trials; for Percent Inhibition: representative panels, 250 mM, vehicle 10% EtOH
Text: (§1) The following scaled scores were used for sensory assessment: […]

[2] = tested on: lactic acid skin irritation; experiment: Lactic acid irritation trial, pretreatment test (anti-irritant applied 15 minutes prior to irritant); format: in vivo, human; conditions: for Percent Inhibition (average inhibition of cumulative irritation) / Percent Inhibition: pretreatment tests; for Percent Inhibition (average inhibition of cumulative irritation): cation salt 250 mM, lactic acid irritant, average over trials; for Percent Inhibition: representative panels, 250 mM, vehicle Visible Difference; for inhibition of skin irritation (in words): salts in Elizabeth Arden Visible Difference Refining Toner, various amounts
Text: as §1

[3] = tested on: skin irritation induced by topical irritants (lactic acid, glycolic acid, capryloyl salicylic acid, benzoyl peroxide); experiment: Human clinical trials of anti-irritant activity (general statements); format: in vivo; conditions: topical application
Procedure: The objective of the clinical trials was to determine whether and to what extent topical formulations of the calcium cation reduced or prevented skin irritation caused by certain severe skin irritants, including particularly lactic acid and glycolic acid (which are hydroxy acids), capryloyl salicylic acid (a β-hydroxy acid ester) and capsaicin (an isolate from cayenne and paprika known for its skin-irritating properties). The trials were conducted in a double blind, randomized, vehicle-controlled manner. Various formulations of the invention were tested in over 460 people.

[4] = tested on: lactic acid skin irritation
Procedure: Tests were conducted in multiple panels of from 7 to 12 subjects each. Subjects were instructed not to wear any makeup or facial lotions to the clinic the day of testing. The subjects were instructed to wash their face with Ivory bar soap in the clinic prior to application of test solutions.
Lactic acid skin-irritant compositions were formulated in an appropriate vehicle prior to application to the skin of the subjects.
Controls were performed by applying corresponding formulation(s) (pretreatment and/or skin-irritant composition) with an equimolar amount of sodium chloride to a contralateral portion of the subject's skin. Typically, the test materials were applied to the face of the subject.
All test solutions (including controls) were applied in a double blind, randomized fashion using the prepared solutions as previously placed in coded vial designated for use on either the right or left side of the face (or other test area). Solutions were typically applied using a cotton swab (six strokes) or sponge applicator to the face and cheek area extending from the midline of the nose over to the center of the cheek and from the cheek bone down to the jaw line. Application was made first to the right side and then to the left.
Sensory assessment scores were recorded for each treated side of the subject's skin every minute for 15 minutes or until three consecutive scores of “zero” irritation were obtained. The following scaled scores were used for sensory assessment:
Symptom scores were cumulated, separately for the cation-treated and control-treated areas, for each individual and also for the panel as a whole. Individuals not reporting a cumulative score of at least “7” on at least one treatment area were excluded (in a blinded fashion) from further analysis in order to ascertain anti-irritant efficacy with respect to the more severely-susceptible test subjects. From a practical standpoint, scores of “0” and “1” on the above scale would be considered highly desirable for a commercial product because such a response would likely not result in a consumer ceasing to use a product.

Molecule | Percent Inhibition (average inhibition of cumulative irritation) [1] | Percent Inhibition [1] | Percent Inhibition (average inhibition of cumulative irritation) [2] | Percent Inhibition [2] | inhibition of skin irritation (in words) [2] | anti-irritant activity (in words) [3] | Percent Inhibition (cumulative irritation inhibition) ([4]; calcium nitrate 31 mM) | Percent Inhibition (cumulative irritation inhibition) ([4]; calcium nitrate 62 mM) | Percent Inhibition (cumulative irritation inhibition) ([4]; calcium nitrate 125 mM) | Percent Inhibition (cumulative irritation inhibition) ([4]; calcium nitrate 250 mM) | Percent Inhibition (cumulative irritation inhibition) ([4]; calcium nitrate 500 mM) | anti-irritant activity (in words) ([3]; listed as calcium(II) (Ca^2+))
CC(=O)[O-].CC(=O)[O-].[Ca+2] [Calcium acetate] | 60% | 65% | 40% | 30% | effective to inhibit skin irritation | particularly active as anti-irritants |  |  |  |  |  | 
[Ca+2].[Cl-].[Cl-] [Calcium chloride] | 65% | 61% | 35% | 35% | effective to inhibit skin irritation | particularly active as anti-irritants |  |  |  |  |  | 
O=[N+]([O-])[O-].O=[N+]([O-])[O-].[Ca+2] [Calcium nitrate] | 90% | 85% | 45% | 44% | effective to inhibit skin irritation | particularly active as anti-irritants | 26% | 52% | 83% | 82% | 67% | 
[Ca+2] [calcium cation, calcium(II)] |  |  |  |  |  | significant and reproducible anti-irritant effects |  |  |  |  |  | effective
Calcium gluconate | 40% | 49% |  | 40% |  | particularly active as anti-irritants |  |  |  |  |  | 
